Read-outs that look alike come from different tables or passages of the source.

In this test the test system is Multidrug resistant Acinetobacter Baumannii, (MRAB). Description: microbe, parasite or virus in culture.

Regarding `NCC[C@H](O)C(=O)N[C@@H]1C[C@H](N)[C@@H](O[C@H]2O[C@H](CN)[C@@H](O)[C@H](O)[C@H]2O)[C@H](O)[C@H]1O[C@H]1O[C@H](CO)[C@@H](O)[C@H](N)[C@H]1O` [AMI, Amikacin], the viability at 4 µg/mL by setting is: (read-out: % bacterial viability, MRAB 1 014754 Urine, AMI 4 μg/ml) 35.9%; (read-out: % bacterial viability, MRAB 2 014801 Catheter, AMI 4 μg/ml) 36%; (read-out: % bacterial viability, MRAB 3 015069 Skin, AMI 4 μg/ml) 66.6%; (read-out: % bacterial viability, MRAB 4 015095 Hospital Environ, AMI 4 μg/ml) 66.4%; (read-out: % bacterial viability, MRAB 5 015103 Hospital Environ, AMI 4 μg/ml) 65.2%; (read-out: % bacterial viability, MRAB 12 016419 Catheter, AMI 4 μg/ml) 49.7%. Further, the viability at 12 µg/mL (read-out: % bacterial viability, MRAB 1 014754 Urine, AMI 12 μg/ml) amounted to 24.5%; the viability at 12 µg/mL (read-out: % bacterial viability, MRAB 2 014801 Catheter, AMI 12 μg/ml) stood at 14.1%; the viability at 12 µg/mL (read-out: % bacterial viability, MRAB 3 015069 Skin, AMI 12 μg/ml) stood at 48.6%; the viability at 12 µg/mL (read-out: % bacterial viability, MRAB 4 015095 Hospital Environ, AMI 12 μg/ml) came out at 42.9%; the viability at 12 µg/mL (read-out: % bacterial viability, MRAB 5 015103 Hospital Environ, AMI 12 μg/ml) stood at 26.9%; the viability at 12 µg/mL (read-out: % bacterial viability, MRAB 12 016419 Catheter, AMI 12 μg/ml) was determined as 22.7%. Further, the viability at 20 µg/mL came to 14.7% (read-out: % bacterial viability, MRAB 1 014754 Urine, AMI 20 μg/ml); 8.36% (read-out: % bacterial viability, MRAB 2 014801 Catheter, AMI 20 μg/ml); 41.7% (read-out: % bacterial viability, MRAB 3 015069 Skin, AMI 20 μg/ml); 33.9% (read-out: % bacterial viability, MRAB 4 015095 Hospital Environ, AMI 20 μg/ml); 24.6% (read-out: % bacterial viability, MRAB 5 015103 Hospital Environ, AMI 20 μg/ml); 19.8% (read-out: % bacterial viability, MRAB 12 016419 Catheter, AMI 20 μg/ml).
